Earlier results as cited in patent US9974792B2, “Methods for treating cancers” (Gilead Sciences, Inc., priority 2013, dated 2018).

Assays:
[1] = tested on: subjects with B-cell malignancies, CLL/SLL; settings: cited from earlier work
CLL subjects = settings: rituximab monotherapy; CLL subjects with similar median age and prior therapies; cited from earlier work

Row | Compound | PFS ([1]; 11 subjects with CLL/SLL) [months] | overall progression-free survival (PFS) ([1]; participants treated in the phase 2 portion of the study) [weeks] | Response rate ([1]; six subjects with partial lymph-node reduction of at least 50%) [%] | 24-week PFS (CLL subjects) [%]
1 | COc1cc(Nc2ncc(F)c(Nc3ccc4c(n3)N(COP(=O)(O)O)C(=O)C(C)(C)O4)n2)cc(OC)c1OC [fostamatinib] | 6.4 | 18 | 54.5 | 
2 | rituximab: monoclonal antibody (anti-CD20), monotherapy comparator in CLL subjects |  |  |  | 46
